Assay results reported in ChEMBL document CHEMBL5390204, “Persephacin Is a Broad-Spectrum Antifungal Aureobasidin Metabolite That Overcomes Intrinsic Resistance in Aspergillus fumigatus” (J Nat Prod, 2023).
≈ marks a conversion by molar mass, not a printed value. Calls of active or inactive are those of the source. The rule behind the calls is not given here.

Key:
[1] = test system: Candida parapsilosis; assay: Antifungal activity against Candida parapsilosis ATCC 22019 (Y-12969) assessed as reduction in fungal growth incubated for 48 hrs by microplate reader analysis; format: functional; conditions: Lodderomyces parapsilosis
[2] = test system: Candida albicans; assay: Antifungal activity against Candida albicans 30 assessed as inhibition in fungal growth incubated for 48 hrs by microplate reader analysis; format: functional
[3] = test system: Nakaseomyces glabratus; assay: Antifungal activity against Candida glabrata 22 assessed as inhibition in fungal growth incubated for 48 hrs by microplate reader analysis; format: functional
[4] = test system: Rhizopus arrhizus; assay: Antifungal activity against Rhizopus oryzae FGSC 9543 assessed as reduction in fungal growth incubated for 48 hrs by microplate reader analysis; format: functional
[5] = test system: Candida albicans; assay: Antifungal activity against Candida albicans SC5314 infected in pig cornea assessed as suppression of fungal growth at 0.1 % administered post fungal infection measured after 4 days by microscopic analysis; format: functional, organism-based; conditions: time 4.0 day
[6] = test system: Candida albicans; assay: Antifungal activity against fluconazole-resistant Candida albicans SC5314 infected in pig cornea assessed as suppression of fungal growth at 0.1 % administered post fungal infection measured after 4 days by microscopic analysis; format: functional, organism-based; conditions: time 4.0 day
[7] = test system: Aspergillus fumigatus; assay: Antifungal activity against Aspergillus fumigatus NRRL5109 infected in pig cornea assessed as suppression of fungal growth at 0.1 % administered post fungal infection measured after 4 days by microscopic analysis; format: functional, organism-based; conditions: time 4.0 day
[8] = Toxicity against human skin model at 10 to 1000 uM; format: tissue-based, Skin of body; conditions: dose 10-1000 µM
[9] = Toxicity against human eye model assessed as irritation at 10 to 1000 uM; format: tissue-based; conditions: dose 10-1000 µM

## CC[C@H](C)C[C@H](C)C[C@H](C)C[C@@H]1NC(=O)[C@H](C(C)C)N(C)C(=O)[C@@H]([C@H](C)CC)OC(=O)[C@H](C(C)(C)O)N(C)C(=O)[C@H](CC(C)C)NC(=O)[C@H](C(C)C)N(C)C(=O)[C@H]([C@H](C)CC)NC(=O)[C@@H]2CCCN2C(=O)CN(C)C1=O
[1]
  MFC: 2.5 µM (≈ 2.69 µg/mL)
  MIC80: 2.5 µM (≈ 2.69 µg/mL)
[2]
  MIC80: 5 µM (≈ 5.38 µg/mL)
[3]
  MIC80: 0.6 µM (≈ 0.645 µg/mL)
[4]
  MFC: > 10 µM
  MIC80: > 10 µM
[5]
  Activity: Active
[6]
  Activity: Active
[7]
  Activity: Active
[8]
  Activity: Non-Toxic
[9]
  Activity: Non-Toxic

## C[C@@H]1[C@H](O)[C@@H](C)/C=C/C=C/C=C/C=C/C=C/C=C/C=C/[C@H](O[C@@H]2O[C@H](C)[C@@H](O)[C@H](N)[C@@H]2O)C[C@@H]2O[C@](O)(C[C@@H](O)C[C@@H](O)[C@H](O)CC[C@@H](O)C[C@@H](O)CC(=O)O[C@H]1C)C[C@H](O)[C@H]2C(=O)O [AMPHOTERICIN B]
[1]
  MFC: 5 µM (≈ 4.62 µg/mL)
  MIC80: 1.3 µM (≈ 1.2 µg/mL)
[2]
  MIC80: 2.5 µM (≈ 2.31 µg/mL)
[3]
  MIC80: 0.3 µM (≈ 0.277 µg/mL)
[4]
  MFC: 0.3 µM (≈ 0.277 µg/mL)
  MIC80: 0.3 µM (≈ 0.277 µg/mL)
